pEC50: −log10 of the molar value. Numbered stars: 1 amine (or outer) side, 2 acyl side, 3 side chain; on linkers, the order of the positions; unused ones are H or OH. Square brackets hold non-standard residues; d marks the D form. Side chains are listed from the residue outwards. Peptide text beside a SMILES is read from it. * marks the point of attachment. C18 diacid = O=C(O)CCCCCCCCCCCCCCCCC(=O)*; γGlu = O=C(O)[C@H](CCC(=O)[*:2])N[*:1]; AEEA = NCCOCCOCC(=O)O; Aib = CC(C)(N)C(=O)O
The compounds below were run against glucagon receptor (Homo sapiens, UniProt P47871) (assay: cell-based).
glucagon receptor, sequence (P47871 26-477): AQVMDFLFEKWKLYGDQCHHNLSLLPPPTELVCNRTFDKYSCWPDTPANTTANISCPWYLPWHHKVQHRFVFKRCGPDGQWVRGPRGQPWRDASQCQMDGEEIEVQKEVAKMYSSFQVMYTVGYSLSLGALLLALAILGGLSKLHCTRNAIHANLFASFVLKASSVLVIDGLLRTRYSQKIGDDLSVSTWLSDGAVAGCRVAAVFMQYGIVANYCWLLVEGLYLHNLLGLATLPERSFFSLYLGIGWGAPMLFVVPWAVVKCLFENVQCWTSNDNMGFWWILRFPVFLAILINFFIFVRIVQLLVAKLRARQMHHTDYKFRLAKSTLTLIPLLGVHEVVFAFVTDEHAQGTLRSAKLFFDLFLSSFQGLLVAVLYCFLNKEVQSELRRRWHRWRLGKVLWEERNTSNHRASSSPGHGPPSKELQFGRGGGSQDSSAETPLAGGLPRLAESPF
Protocol: The cells (14000 per well) were incubated (37° C., 5% CO2) overnight in 384-well plates. Next day the cells were loaded with a calcium responsive dye that only distributed into the cytoplasm. Probenecid, an inhibitor of the organic anion transporter, was added to prevent the dye from leaving the cell. A PDE inhibitor was added to prevent formatted cAMP from being degraded. […] End point data were collected after 6 minutes. An increase in intracellular cAMP was proportional to an increased in calcium concentrations in the cytoplasm. […] EC50-values were calculated in Prism5.

Compound	pEC50
CC(C)C[C@H](NC(=O)[C@H](Cc1ccc(O)cc1)NC(=O)[C@H](CCCCN)NC(=O)[C@H](CO)NC(=O)[C@H](Cc1ccc(O)cc1)NC(=O)[C@H](CC(=O)O)NC(=O)[C@H](CO)NC(=O)[C@@H](NC(=O)[C@H](Cc1ccccc1)NC(=O)[C@@H](NC(=O)CNC(=O)[C@H](CCC(N)=O)NC(=O)[C@H](CO)NC(=O)[C@@H](N)Cc1c[nH]cn1)[C@@H](C)O)[C@@H](C)O)C(=O)N[C@@H](CC(=O)O)C(=O)N[C@@H](CCCCNC(=O)COCCOCCNC(=O)COCCOCCNC(=O)CC[C@H](NC(=O)CCCCCCCCCCCCCCCCC(=O)O)C(=O)O)C(=O)N[C@@H](CCCCN)C(=O)N[C@@H](CCCCN)C(=O)N[C@@H](C)C(=O)N[C@@H](CCC(N)=O)C(=O)N[C@@H](CCC(=O)O)C(=O)N[C@@H](Cc1ccccc1)C(=O)N[C@H](C(=O)N[C@@H](CCC(N)=O)C(=O)N[C@@H](Cc1c[nH]c2ccccc12)C(=O)N[C@@H](CC(C)C)C(=O)N[C@@H](CC(C)C)C(=O)N[C@@H](CC(N)=O)C(=O)N[C@H](C(=O)O)[C@@H](C)O)C(C)C [Example 6] (H-HSQGTFTSDYSKYLDK([AEEA-AEEA-γGlu-C18 diacid])KKAQEFVQWLLNT-OH; N-terminus and C-terminus assumed)	10.70
CC(C)C[C@H](NC(=O)[C@H](Cc1ccc(O)cc1)NC(=O)[C@H](CCCCN)NC(=O)[C@H](CO)NC(=O)[C@H](Cc1ccc(O)cc1)NC(=O)[C@H](CC(=O)O)NC(=O)[C@H](CO)NC(=O)[C@@H](NC(=O)[C@H](Cc1ccccc1)NC(=O)[C@@H](NC(=O)CNC(=O)[C@H](CCC(N)=O)NC(=O)[C@H](CO)NC(=O)[C@@H](N)Cc1c[nH]cn1)[C@@H](C)O)[C@@H](C)O)C(=O)N[C@@H](CC(=O)O)C(=O)N[C@@H](CO)C(=O)N[C@@H](CCCNC(=N)N)C(=O)N[C@@H](CCCNC(=N)N)C(=O)N[C@@H](C)C(=O)N[C@@H](CCC(N)=O)C(=O)N[C@@H](CC(=O)O)C(=O)N[C@@H](Cc1ccccc1)C(=O)N[C@H](C(=O)N[C@@H](CCCCNC(=O)COCCOCCNC(=O)COCCOCCNC(=O)CC[C@H](NC(=O)CCCCCCCCCCCCCCCCC(=O)O)C(=O)O)C(=O)N[C@@H](Cc1c[nH]cn1)C(=O)N[C@@H](CC(C)C)C(=O)N[C@@H](CC(C)C)C(=O)N[C@@H](CC(N)=O)C(=O)N[C@H](C(=O)O)[C@@H](C)O)C(C)C [Example 50, N^ε24-([2-[2-[2-[[2-[2-[2-[[(4S)-5-hydroxy-4-[(18-hydroxy-18-oxooctadecanoyl)amino]-5-oxopentanoyl]amino]ethoxy]ethoxy]acetyl]amino]ethoxy]ethoxy]acetyl]) [Lys^24,His^25,Leu^27] Glucagon]	9.71
CSCC[C@H](NC(=O)[C@H](CC(C)C)NC(=O)[C@H](Cc1c[nH]c2ccccc12)NC(=O)[C@H](CCC(N)=O)NC(=O)[C@@H](NC(=O)[C@H](Cc1ccccc1)NC(=O)[C@H](CC(=O)O)NC(=O)[C@H](CCCCNC(=O)COCCOCCNC(=O)CC[C@H](NC(=O)CCCCCCCCCCCCCCCCC(=O)O)C(=O)O)NC(=O)[C@H](C)NC(=O)[C@H](CCCNC(=N)N)NC(=O)[C@H](CCCNC(=N)N)NC(=O)[C@H](CO)NC(=O)[C@H](CC(=O)O)NC(=O)[C@H](CC(C)C)NC(=O)[C@H](Cc1ccc(O)cc1)NC(=O)[C@H](CCCCN)NC(=O)[C@H](CO)NC(=O)[C@H](Cc1ccc(O)cc1)NC(=O)[C@H](CC(=O)O)NC(=O)[C@H](CO)NC(=O)[C@@H](NC(=O)[C@H](Cc1ccccc1)NC(=O)[C@@H](NC(=O)CNC(=O)[C@H](CCC(N)=O)NC(=O)[C@@H](CO)NC(=O)[C@@H](N)Cc1c[nH]cn1)[C@@H](C)O)[C@@H](C)O)C(C)C)C(=O)N[C@@H](CC(N)=O)C(=O)N[C@H](C(=O)N[C@@H](CCCCN)C(N)=O)[C@@H](C)O [Example 23, N^α-(N^ε24 [2-[2-[2-[[(4S)-5-hydroxy-4-[(18-hydroxy-18-oxo-octadecanoyl)amino]-5-oxo-pentanoyl]amino]ethoxy]ethoxy]acetyl] [D-Ser^e, Lys^20] Glucagonyl) Lysinyl amide]	9.27

More lines, in order of rising pEC50, values ahead:

pEC50	Compound
8.67	CC(C)C[C@H](NC(=O)[C@H](Cc1ccc(O)cc1)NC(=O)[C@H](CCCNC(=N)N)NC(=O)[C@H](CO)NC(=O)[C@H](Cc1ccc(O)cc1)NC(=O)[C@H](CC(=O)O)NC(=O)[C@H](CO)NC(=O)[C@@H](NC(=O)[C@H](Cc1ccccc1)NC(=O)[C@@H](NC(=O)CNC(=O)[C@H](CCC(N)=O)NC(=O)[C@H](CO)NC(=O)[C@@H](N)Cc1c[nH]cn1)[C@@H](C)O)[C@@H](C)O)C(=O)N[C@@H](CC(=O)O)C(=O)N[C@@H](CO)C(=O)N[C@@H](CCCNC(=N)N)C(=O)N[C@@H](CCCNC(=N)N)C(=O)N[C@@H](C)C(=O)N[C@@H](CCC(N)=O)C(=O)N[C@@H](CC(=O)O)C(=O)N[C@@H](Cc1ccccc1)C(=O)N[C@H](C(=O)N[C@@H](CCC(N)=O)C(=O)N[C@@H](Cc1c[nH]c2ccccc12)C(=O)N[C@@H](CC(C)C)C(=O)N[C@@H](CCCCNC(=O)CC[C@H](NC(=O)CC[C@H](NC(=O)COCCOCCNC(=O)COCCOCCNC(=O)CC[C@H](NC(=O)CCCCCCCCCCCCCCCCC(=O)O)C(=O)O)C(=O)O)C(=O)O)C(=O)N[C@@H](CC(N)=O)C(=O)N1CCC[C@H]1C(=O)O)C(C)C [Example 87, N^ε27-[(4S)-4-carboxy-4-[[(4S)-4-carboxy-4-[[2-[2-[2-[[2-[2-[2-[[(4S)-4-carboxy-4-(17-carboxyheptadecanoylamino)butanoyl]amino]ethoxy]ethoxy]acetyl]amino]ethoxy]ethoxy]acetyl]amino]butanoyl]amino]butanoyl]-[Arg^12,Lys^27,Pro^29]-Glucagon]
9.87	CC(C)C[C@H](NC(=O)[C@H](Cc1ccc(O)cc1)NC(=O)[C@H](CCCCN)NC(=O)[C@H](CO)NC(=O)[C@H](Cc1ccc(O)cc1)NC(=O)[C@H](CC(=O)O)NC(=O)[C@H](CO)NC(=O)[C@@H](NC(=O)[C@H](Cc1ccccc1)NC(=O)[C@@H](NC(=O)CNC(=O)[C@H](CCC(N)=O)NC(=O)C(C)(C)NC(=O)[C@@H](N)Cc1c[nH]cn1)[C@@H](C)O)[C@@H](C)O)C(=O)N[C@@H](CC(=O)O)C(=O)N[C@@H](CCC(=O)O)C(=O)N[C@@H](CCCNC(=N)N)C(=O)N[C@@H](CCCNC(=N)N)C(=O)N[C@@H](C)C(=O)N[C@@H](CCC(N)=O)C(=O)N[C@@H](CC(=O)O)C(=O)N[C@@H](Cc1ccccc1)C(=O)N[C@H](C(=O)N[C@@H](CCCCNC(=O)COCCOCCNC(=O)COCCOCCNC(=O)CC[C@H](NC(=O)CCCCCCCCCCCCCCCCC(=O)O)C(=O)O)C(=O)N[C@@H](Cc1c[nH]c2ccccc12)C(=O)N[C@@H](CC(C)C)C(=O)N[C@@H](CC(C)C)C(=O)N[C@@H](CC(N)=O)C(=O)N[C@H](C(N)=O)[C@@H](C)O)C(C)C [Example 29, N^ε24-([2-[2-[2-[[2-[2-[2-[[(4S)-5-hydroxy-4-[(18-hydroxy-18-oxooctadecanoyl)amino]-5-oxopentanoyl]amino]ethoxy]ethoxy]acetyl]amino]ethoxy]ethoxy]acetyl]) [Aib^2,Glu^16,Lys^24,Leu^27]Glucagon peptide amide] (H-H[Aib]QGTFTSDYSKYLDERRAQDFVK([AEEA-AEEA-γGlu-C18 diacid])WLLNT-NH2; N-terminus assumed)
9.92	CC(C)C[C@H](NC(=O)[C@H](Cc1ccc(O)cc1)NC(=O)[C@H](CCCCN)NC(=O)[C@H](CO)NC(=O)[C@H](Cc1ccc(O)cc1)NC(=O)[C@H](CC(=O)O)NC(=O)[C@H](CO)NC(=O)[C@@H](NC(=O)[C@H](Cc1ccccc1)NC(=O)[C@@H](NC(=O)CNC(=O)[C@H](CCC(N)=O)NC(=O)[C@H](CO)NC(=O)[C@@H](N)Cc1c[nH]cn1)[C@@H](C)O)[C@@H](C)O)C(=O)N[C@@H](CC(=O)O)C(=O)N[C@@H](CO)C(=O)N[C@@H](CCCNC(=N)N)C(=O)N[C@@H](CCCNC(=N)N)C(=O)N[C@@H](C)C(=O)N[C@@H](CCC(=O)O)C(=O)N[C@@H](CCC(=O)O)C(=O)N[C@@H](Cc1ccccc1)C(=O)N[C@H](C(=O)N[C@@H](CCCCNC(=O)CC[C@H](NC(=O)CC[C@H](NC(=O)COCCOCCNC(=O)CC[C@H](NC(=O)CCCCCCCCCCCCCCCCC(=O)O)C(=O)O)C(=O)O)C(=O)O)C(=O)N[C@@H](Cc1c[nH]c2ccccc12)C(=O)N[C@@H](CC(C)C)C(=O)N[C@@H](CC(C)C)C(=O)N[C@@H](CO)C(=O)N[C@H](C(=O)O)[C@@H](C)O)C(C)C [Example 93, N^ε24-[(4S)-4-carboxy-4-[[(4S)-4-carboxy-4-[[2-[2-[2-[[(4S)-4-carboxy-4-(17-carboxyheptadecanoylamino)butanoyl]amino]ethoxy]ethoxy]acetyl]amino]butanoyl]amino]butanoyl]-[Glu^20,Glu^21,Lys^24,Leu^27,Ser^28]-Glucagon] (H-HSQGTFTSDYSKYLDSRRAEEFVK([γGlu-γGlu-AEEA-γGlu-C18 diacid])WLLST-OH)
9.96	CC(C)C[C@H](NC(=O)[C@H](Cc1ccc(O)cc1)NC(=O)[C@H](CCCNC(=N)N)NC(=O)[C@H](CO)NC(=O)[C@H](Cc1ccc(O)cc1)NC(=O)[C@H](CC(=O)O)NC(=O)[C@H](CO)NC(=O)[C@@H](NC(=O)[C@H](Cc1ccccc1)NC(=O)[C@@H](NC(=O)CNC(=O)[C@H](CCC(N)=O)NC(=O)[C@H](CO)NC(=O)[C@@H](N)Cc1c[nH]cn1)[C@@H](C)O)[C@@H](C)O)C(=O)N[C@@H](CC(=O)O)C(=O)N[C@@H](CO)C(=O)N[C@@H](CCCNC(=N)N)C(=O)N[C@@H](CCCNC(=N)N)C(=O)N[C@@H](C)C(=O)N[C@@H](CCC(N)=O)C(=O)N[C@@H](CC(=O)O)C(=O)N[C@@H](Cc1ccccc1)C(=O)N[C@H](C(=O)N[C@@H](CCCCNC(=O)COCCOCCNC(=O)COCCOCCNC(=O)CC[C@H](NC(=O)CCCCCCCCCCCCCCCCC(=O)O)C(=O)O)C(=O)N[C@@H](Cc1c[nH]c2ccccc12)C(=O)N[C@@H](CC(C)C)C(=O)N[C@@H](CC(C)C)C(=O)N[C@@H](CC(N)=O)C(=O)N[C@H](C(=O)O)[C@@H](C)O)C(C)C [Example 47] (H-HSQGTFTSDYSRYLDSRRAQDFVK([AEEA-AEEA-γGlu-C18 diacid])WLLNT-OH; N-terminus and C-terminus assumed)

— patent US20160271263A1 (Novo Nordisk A/S, priority 2010, published 2016)
